# Source: PubChem BioAssay (NCI)
#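 48-hour exposure; five concentrations; linearly interpolated endpoints. The concentration for full growth arrest is given as TGI.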
# Experiments:
# Assay in all cases: DTP human tumour cell line panel, 48 h
# 786-0 renal = test system: 786-0 renal
# A498 renal = test system: A498 renal
# A549 NSCLC = test system: A549 NSCLC
# ACHN renal = test system: ACHN renal
# BT-549 breast = test system: BT-549 breast
# CAKI-1 renal = test system: CAKI-1 renal
# CCRF-CEM leukemia = test system: CCRF-CEM leukemia
# COLO 205 colon = test system: COLO 205 colon
# DU-145 prostate = test system: DU-145 prostate
# EKVX NSCLC = test system: EKVX NSCLC
# HCC-2998 colon = test system: HCC-2998 colon
# HCT-116 colon = test system: HCT-116 colon
# HCT-15 colon = test system: HCT-15 colon
# HL-60(TB) leukemia = test system: HL-60(TB) leukemia
# HOP-62 NSCLC = test system: HOP-62 NSCLC
# HT29 colon = test system: HT29 colon
# IGROV1 ovarian = test system: IGROV1 ovarian
# K-562 leukemia = test system: K-562 leukemia
# LOX IMVI melanoma = test system: LOX IMVI melanoma
# M14 melanoma = test system: M14 melanoma
# MALME-3M melanoma = test system: MALME-3M melanoma
# MCF7 breast = test system: MCF7 breast
# MDA-MB-231 breast = test system: MDA-MB-231 breast
# MDA-MB-435 = test system: MDA-MB-435
# MDA-N = test system: MDA-N
# MOLT-4 leukemia = test system: MOLT-4 leukemia
# NCI-H226 lung = test system: NCI-H226 lung
# NCI-H23 lung = test system: NCI-H23 lung
# NCI-H460 lung = test system: NCI-H460 lung
# NCI-H522 lung = test system: NCI-H522 lung
# NCI/ADR-RES ovarian = test system: NCI/ADR-RES ovarian
# OVCAR-3 ovarian = test system: OVCAR-3 ovarian
# OVCAR-4 ovarian = test system: OVCAR-4 ovarian
# OVCAR-5 ovarian = test system: OVCAR-5 ovarian
# OVCAR-8 ovarian = test system: OVCAR-8 ovarian
# PC-3 prostate = test system: PC-3 prostate
# RPMI-8226 leukemia = test system: RPMI-8226 leukemia
# RXF 393 renal = test system: RXF 393 renal
# SF-268 CNS = test system: SF-268 CNS
# SF-295 CNS = test system: SF-295 CNS
# SF-539 CNS = test system: SF-539 CNS
# SK-MEL-2 melanoma = test system: SK-MEL-2 melanoma
# SK-MEL-28 melanoma = test system: SK-MEL-28 melanoma
# SK-MEL-5 melanoma = test system: SK-MEL-5 melanoma
# SK-OV-3 ovarian = test system: SK-OV-3 ovarian
# SN12C renal = test system: SN12C renal
# SNB-19 CNS = test system: SNB-19 CNS
# SNB-75 CNS = test system: SNB-75 CNS
# SR leukemia = test system: SR leukemia
# SW-620 colon = test system: SW-620 colon
# TK-10 renal = test system: TK-10 renal
# U251 CNS = test system: U251 CNS
# UACC-257 melanoma = test system: UACC-257 melanoma
# UACC-62 melanoma = test system: UACC-62 melanoma
# UO-31 renal = test system: UO-31 renal
structure (smiles),measurement,setting,value
COc1ccc2c(c1)-c1nn(CCN(C)C)c3ccc(C(=O)NCCCN(C)CCCNC(=O)c4ccc5c6c(nn5CCN(C)C)-c5cc(OC)ccc5Nc46)c(c13)N2,TGI,786-0 renal,1.9 µM
same,TGI,A498 renal,0.633 µM
same,TGI,A549 NSCLC,1.17 µM
same,TGI,ACHN renal,7.28 µM
same,TGI,BT-549 breast,0.948 µM
same,TGI,CAKI-1 renal,8.12 µM
same,TGI,CCRF-CEM leukemia,0.141 µM
same,TGI,COLO 205 colon,0.224 µM
same,TGI,DU-145 prostate,0.952 µM
same,TGI,EKVX NSCLC,1.68 µM
same,TGI,HCC-2998 colon,0.306 µM
same,TGI,HCT-116 colon,1.74 µM
same,TGI,HCT-15 colon,10.9 µM
same,TGI,HL-60(TB) leukemia,2.63 µM
same,TGI,HOP-62 NSCLC,1.32 µM
same,TGI,HT29 colon,1.74 µM
same,TGI,IGROV1 ovarian,1.47 µM
same,TGI,K-562 leukemia,1.14 µM
same,TGI,LOX IMVI melanoma,0.898 µM
same,TGI,M14 melanoma,1.33 µM
same,TGI,MALME-3M melanoma,0.762 µM
same,TGI,MCF7 breast,1.97 µM
same,TGI,MDA-MB-231 breast,0.689 µM
same,TGI,MDA-MB-435,0.262 µM
same,TGI,MDA-N,0.564 µM
same,TGI,MOLT-4 leukemia,0.0653 µM
same,TGI,NCI-H226 lung,0.541 µM
same,TGI,NCI-H23 lung,0.384 µM
same,TGI,NCI-H460 lung,1.11 µM
same,TGI,NCI-H522 lung,0.273 µM
same,TGI,NCI/ADR-RES ovarian,> 62.9 µM
same,TGI,OVCAR-3 ovarian,3.23 µM
same,TGI,OVCAR-4 ovarian,0.827 µM
same,TGI,OVCAR-5 ovarian,1.66 µM
same,TGI,OVCAR-8 ovarian,0.977 µM
same,TGI,PC-3 prostate,1.09 µM
same,TGI,RPMI-8226 leukemia,0.0768 µM
same,TGI,RXF 393 renal,0.499 µM
same,TGI,SF-268 CNS,2.46 µM
same,TGI,SF-295 CNS,3.38 µM
same,TGI,SF-539 CNS,1.56 µM
same,TGI,SK-MEL-2 melanoma,0.25 µM
same,TGI,SK-MEL-28 melanoma,0.48 µM
same,TGI,SK-MEL-5 melanoma,0.313 µM
same,TGI,SK-OV-3 ovarian,3.18 µM
same,TGI,SN12C renal,0.983 µM
same,TGI,SNB-19 CNS,1.04 µM
same,TGI,SNB-75 CNS,0.393 µM
same,TGI,SR leukemia,3.39 µM
same,TGI,SW-620 colon,1.54 µM
same,TGI,TK-10 renal,4.95 µM
same,TGI,U251 CNS,0.825 µM
same,TGI,UACC-257 melanoma,0.614 µM
same,TGI,UACC-62 melanoma,0.23 µM
same,TGI,UO-31 renal,4.41 µM
